# Reference: patent EP4477653A1 (Perha Pharmaceuticals, priority 2023, dated 2024)
# Biological target: T1, human recombinant A3AR (expressed in HEK-293 cells) (Homo sapiens, UniProt P0DMS8)
# T1 construct: host or cells: HEK-293 cells
# T1 sequence (P0DMS8 1-318): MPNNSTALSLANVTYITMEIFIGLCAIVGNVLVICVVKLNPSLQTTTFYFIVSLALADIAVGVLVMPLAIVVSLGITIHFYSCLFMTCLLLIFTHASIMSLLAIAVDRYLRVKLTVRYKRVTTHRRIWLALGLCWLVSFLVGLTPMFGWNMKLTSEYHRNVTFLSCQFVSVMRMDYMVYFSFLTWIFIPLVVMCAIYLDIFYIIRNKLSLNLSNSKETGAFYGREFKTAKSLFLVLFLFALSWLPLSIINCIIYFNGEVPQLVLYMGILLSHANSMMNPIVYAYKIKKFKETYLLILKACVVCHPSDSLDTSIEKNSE
# Assay: Adenosine receptors antagonism assay (Eurofins), [125I]-AB-MECA radioligand competition
# Format: binding
# Conditions: [125I]-AB-MECA 0.15 nM, r.t., 120 min; IC50 from dose-response curves; read-out: Potency Class A3AR
row,IC50 [nM],SMILES
1,< 1,"CCC(CC)CNc1cc(NCCc2ccccn2)c2nnc(C(C)C)n2n1 [compound 164, N6-(2-ethylbutyl)-3-isopropyl-N8-[2-(2-pyridyl)ethyl]-[1,2,4]triazolo[4,3-b]pyridazine-6,8-diamine]"
2,1 to 10,"CC(C)c1nnc2c(NCCc3ccccn3)cc(NC3CCCC3)nn12 [compound 165, N6-cyclopentyl-3-isopropyl-N8-[2-(2-pyridyl)ethyl]-[1,2,4]triazolo[4,3-b]pyridazine-6,8-diamine]"
3,1 to 10,"CCC(CC)CNc1cc(NCCc2cccnc2)c2nnc(C(C)C)n2n1 [compound 166, N6-(2-ethylbutyl)-3-isopropyl-N8-[2-(3-pyridyl)ethyl]-[1,2,4]triazolo[4,3-b]pyridazine-6,8-diamine]"
4,1 to 10,"CCC(CC)CNc1cc(NCC(CC)CC)c2nnc(C(C)C)n2n1 [compound 167, N6,N8-bis(2-ethylbutyl)-3-isopropyl-[1,2,4]triazolo[4,3-b]pyridazine-6,8-diamine]"
5,1 to 10,"CCC(CC)Nc1cc(NCCCc2ccccc2)c2nnc(C(C)C)n2n1 [compound 170, N6-(1-ethylpropyl)-3-isopropyl-N8-(3-phenylpropyl)-[1,2,4]triazolo[4,3-b]pyridazine-6,8-diamine]"
6,< 1,"CCC(CC)Nc1cc(Nc2ccccc2)c2nnc(C3CC3)n2n1 [compound 171, 3-cyclopropyl-N6-(1-ethylpropyl)-N8-phenyl-[1,2,4]triazolo[4,3-b]pyridazine-6,8-diamine]"
7,< 1,"CCC(CC)Nc1cc(Nc2ccccn2)c2nnc(C3CC3)n2n1 [compound 172, 3-cyclopropyl-N6-(1-ethylpropyl)-N8-(2-pyridyl)-[1,2,4]triazolo[4,3-b]pyridazine-6,8-diamine]"
8,< 1,"CCC(CC)Nc1cc(Nc2cccnc2)c2nnc(C3CC3)n2n1 [compound 173, 3-cyclopropyl-N6-(1-ethylpropyl)-N8-(3-pyridyl)-[1,2,4]triazolo[4,3-b]pyridazine-6,8-diamine]"
9,< 1,"CCC(CC)Nc1cc(Nc2ccncc2)c2nnc(C3CC3)n2n1 [compound 174, 3-cyclopropyl-N6-(1-ethylpropyl)-N8-(4-pyridyl)-[1,2,4]triazolo[4,3-b]pyridazine-6,8-diamine]"
10,1 to 10,"CCC(CC)Nc1cc(Nc2ccnnc2)c2nnc(C3CC3)n2n1 [compound 176, 3-cyclopropyl-N6-(pentan-3-yl)-N8-(pyridazin-4-yl)-[1,2,4]triazolo[4,3-b]pyridazine-6,8-diamine]"
11,< 1,"CCC(CC)Nc1cc(Nc2ccncn2)c2nnc(C3CC3)n2n1 [compound 177, 3-cyclopropyl-N6-(pentan-3-yl)-N8-(pyrimidin-4-yl)-[1,2,4]triazolo[4,3-b]pyridazine-6,8-diamine]"
12,< 1,"CCC(CC)Nc1cc(Nc2cncnc2)c2nnc(C3CC3)n2n1 [compound 178, 3-cyclopropyl-N6-(1-ethylpropyl)-N8-pyrimidin-5-yl-[1,2,4]triazolo[4,3-b]pyridazine-6,8-diamine]"
13,10 to 100,"CCC(CC)Nc1cc(Nc2ncccn2)c2nnc(C3CC3)n2n1 [compound 179, 3-cyclopropyl-N6-(pentan-3-yl)-N8-(pyrimidin-2-yl)-[1,2,4]triazolo[4,3-b]pyridazine-6,8-diamine]"
14,< 1,"CCC(CC)Nc1cc(Nc2cnccn2)c2nnc(C3CC3)n2n1 [compound 180, 3-cyclopropyl-N6-(pentan-3-yl)-N8-(pyrazin-2-yl)-[1,2,4]triazolo[4,3-b]pyridazine-6,8-diamine]"
15,< 1,"CC[C@H](CO)Nc1cc(Nc2cccnn2)c2nnc(C3CC3)n2n1 [compound 181, (R)-2-((3-cyclopropyl-8-(pyridazin-3-ylamino)-[1,2,4]triazolo[4,3-b]pyridazin-6-yl)amino)butan-1-ol]"
16,< 1,"CC[C@@H](CO)Nc1cc(Nc2cccnn2)c2nnc(C3CC3)n2n1 [compound 182, (S)-2-((3-cyclopropyl-8-(pyridazin-3-ylamino)-[1,2,4]triazolo[4,3-b]pyridazin-6-yl)amino)butan-1-ol]"
17,< 1,"CCC(CC)Nc1cc(Nc2cccc(OC)n2)c2nnc(C3CC3)n2n1 [compound 183, 3-cyclopropyl-N8-(6-methoxypyridin-2-yl)-N6-(pentan-3-yl)-[1,2,4]triazolo[4,3-b]pyridazine-6,8-diamine]"
18,10 to 100,"CCC(CC)Nc1cc(Nc2cccnc2OC)c2nnc(C3CC3)n2n1 [compound 184, 3-cyclopropyl-N8-(2-methoxypyridin-3-yl)-N6-(pentan-3-yl)-[1,2,4]triazolo[4,3-b]pyridazine-6,8-diamine]"

row,IC50 [nM],SMILES
1,10 to 100,"CC[C@H](CO)Nc1cc(NCCc2ccccn2)c2nnc(C3CC3)n2n1 [compound 185, (2R)-2-[[3-cyclopropyl-8-[2-(2-pyridyl)ethylamino]-[1,2,4]triazolo[4,3-b]pyridazin-6-yl]amino]butan-1-ol]"
2,1 to 10,"c1ccc(CNc2cc(NCc3ccccn3)c3nnc(C4CC4)n3n2)cc1 [compound 186, N6-benzyl-3-cyclopropyl-N8-(pyridin-2-ylmethyl)-[1,2,4]triazolo[4,3-b]pyridazine-6,8-diamine]"
3,1 to 10,"COc1ccc(CNc2cc(NCc3ccccn3)c3nnc(C4CC4)n3n2)cc1 [compound 187, 3-cyclopropyl-N6-(4-methoxybenzyl)-N8-(pyridin-2-ylmethyl)-[1,2,4]triazolo[4,3-b]pyridazine-6,8-diamine]"
4,100 to 1000,"COc1ccc(CN(C)c2cc(NCc3ccccn3)c3nnc(C4CC4)n3n2)cc1 [compound 188, 3-cyclopropyl-N6-(4-methoxybenzyl)-N6-methyl-N8-(pyridin-2-ylmethyl)-[1,2,4]triazolo[4,3-b]pyridazine-6,8-diamine]"
5,10 to 100,"CCNc1cc(NCc2ccccn2)c2nnc(C3CC3)n2n1 [compound 189, 3-cyclopropyl-N6-ethyl-N8-(2-pyridylmethyl)-[1,2,4]triazolo[4,3-b]pyridazine-6,8-diamine]"
6,10 to 100,"CCCNc1cc(NCc2ccccn2)c2nnc(C3CC3)n2n1 [compound 190, 3-cyclopropyl-N6-propyl-N8-(pyridin-2-ylmethyl)-[1,2,4]triazolo[4,3-b]pyridazine-6,8-diamine]"
7,1 to 10,"CCCCNc1cc(NCc2ccccn2)c2nnc(C3CC3)n2n1 [compound 191, N6-butyl-3-cyclopropyl-N8-(pyridin-2-ylmethyl)-[1,2,4]triazolo[4,3-b]pyridazine-6,8-diamine]"
8,1 to 10,"CC(C)Nc1cc(NCc2ccccn2)c2nnc(C3CC3)n2n1 [compound 192, 3-cyclopropyl-N6-isopropyl-N8-(pyridin-2-ylmethyl)-[1,2,4]triazolo[4,3-b]pyridazine-6,8-diamine]"
9,10 to 100,"CC(C)CNc1cc(NCc2ccccn2)c2nnc(C3CC3)n2n1 [compound 194, 3-cyclopropyl-N6-isobutyl-N8-(pyridin-2-ylmethyl)-[1,2,4]triazolo[4,3-b]pyridazine-6,8-diamine]"
10,1 to 10,"CC(C)(C)Nc1cc(NCc2ccccn2)c2nnc(C3CC3)n2n1 [compound 195, N6-(tert-butyl)-3-cyclopropyl-N8-(pyridin-2-ylmethyl)-[1,2,4]triazolo[4,3-b]pyridazine-6,8-diamine]"
11,1 to 10,"CCC(CC)CNc1cc(NCc2ccccn2)c2nnc(C3CC3)n2n1 [compound 196, 3-cyclopropyl-N6-(2-ethylbutyl)-N8-(pyridin-2-ylmethyl)-[1,2,4]triazolo[4,3-b]pyridazine-6,8-diamine]"
12,10 to 100,"c1ccc(CNc2cc(NC3CC3)nn3c(C4CC4)nnc23)nc1 [compound 197, N6,3-dicyclopropyl-N8-(pyridin-2-ylmethyl)-[1,2,4]triazolo[4,3-b]pyridazine-6,8-diamine]"
13,1 to 10,"c1ccc(CNc2cc(NC3CCC3)nn3c(C4CC4)nnc23)nc1 [compound 198, N6-cyclobutyl-3-cyclopropyl-N8-(pyridin-2-ylmethyl)-[1,2,4]triazolo[4,3-b]pyridazine-6,8-diamine]"
14,1 to 10,"c1ccc(CNc2cc(NC3CCCC3)nn3c(C4CC4)nnc23)nc1 [compound 199, N6-cyclopentyl-3-cyclopropyl-N8-(pyridin-2-ylmethyl)-[1,2,4]triazolo[4,3-b]pyridazine-6,8-diamine]"
15,1 to 10,"c1ccc(CNc2cc(NC3CCCCC3)nn3c(C4CC4)nnc23)nc1 [compound 200, N6-cyclohexyl-3-cyclopropyl-N8-(pyridin-2-ylmethyl)-[1,2,4]triazolo[4,3-b]pyridazine-6,8-diamine]"
16,1 to 10,"c1ccc(CNc2cc(NC3CCCCCC3)nn3c(C4CC4)nnc23)nc1 [compound 201, N6-cycloheptyl-3-cyclopropyl-N8-(pyridin-2-ylmethyl)-[1,2,4]triazolo[4,3-b]pyridazine-6,8-diamine]"
17,1 to 10,"c1ccc(CNc2cc(NC34CC5CC(CC(C5)C3)C4)nn3c(C4CC4)nnc23)nc1 [compound 202, N6-((3s,5s,7s)-adamantan-1-yl)-3-cyclopropyl-N8-(pyridin-2-ylmethyl)-[1,2,4]triazolo[4,3-b]pyridazine-6,8-diamine]"

# Same assay, conditions: read-out: Potency Class A3AR; [125I]-AB-MECA 0.15 nM, r.t., 120 min; IC50 from dose-response curves
row,SMILES,IC50 [nM]
1,"CCC(CC)Nc1cc(NC(=O)Cc2cccnc2)c2nnc(C(C)C)n2n1 [compound 168, N-[6-(1-ethylpropylamino)-3-isopropyl-[1.2.4]triazolo[4,3-b]pyridazin-8-yl]-2-(3-pyridyl)acetamide]",< 1
2,CC[C@H](CO)Nc1cc(NCc2ccccn2)c2nnc(C(C)C)n2n1 [compound 169],10 to 100
